Assay results taken from BindingDB's records for patent US8940738 (Mitsubishi Tanabe Pharma, 2015).
pIC50: −log10 of the molar value.

Molecular target: T1, Serine/threonine-protein (Bos taurus, UniProt A0A3Q1MT31)
T1 construct: gene GSK3B
Assay: Inhibition Assay
Conditions: pH 6.5; 25 °C
Procedure: A mixture containing 100 mM MES-sodium hydroxide (pH 6.5), 1 mM magnesium acetate, 0.5 mM EGTA, 5 mM beta-mercaptoethanol, 0.02% Tween 20, 10% glycerol, 12 ug/ml P-GS1, 41.7 uM [gamma-32P] ATP (68 kBq/ml), bovine cerebral TPK1 and a compound shown in Table (a final mixture contained 1.7% DMSO deriving from a solution of a test compound prepared in the presence of 10% DMSO) was used as a reaction system. The phosphorylation was started by adding ATP, and the reaction was conducted at 25 C. for 2 hours, and then stopped by adding 21% perchloric acid on ice cooling. The reaction mixture was centrifuged at 12,000 rpm for 5 minutes and adsorbed on P81 paper (Whatmann), and then the paper was washed four times with 75 mM phosphoric acid, three times with water and once with acetone. The paper was dried, and the residual radioactivity was measured using a liquid scintillation counter.

T1 sequence (A0A3Q1MT31 1-419): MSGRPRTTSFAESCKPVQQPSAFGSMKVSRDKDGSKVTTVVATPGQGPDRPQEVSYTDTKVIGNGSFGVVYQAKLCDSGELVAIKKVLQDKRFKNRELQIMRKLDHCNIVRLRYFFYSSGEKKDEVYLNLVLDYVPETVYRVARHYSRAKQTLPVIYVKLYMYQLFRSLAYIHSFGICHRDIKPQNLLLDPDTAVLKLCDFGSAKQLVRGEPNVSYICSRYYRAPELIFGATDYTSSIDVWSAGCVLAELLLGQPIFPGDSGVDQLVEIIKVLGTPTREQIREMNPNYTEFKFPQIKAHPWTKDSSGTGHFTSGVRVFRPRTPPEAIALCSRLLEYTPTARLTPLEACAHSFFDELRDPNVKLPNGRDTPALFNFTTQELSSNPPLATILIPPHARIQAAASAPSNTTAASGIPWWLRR

Row | pIC50 | SMILES
1 | 7.11 | Cc1cccc(N2CCN(c3nc(-c4ncncc4F)cc(=O)n3C)CC2)c1C [US8940738, 7]
2 | 7.12 | COc1ccc(CCNc2nc(-c3ncncc3F)cc(=O)n2C)cc1OC [US8940738, 8]
3 | 6.22 | Cn1c(NCC(=O)c2ccc(Cl)cc2)nc(-c2ncncc2F)cc1=O [US8940738, 9]
4 | 6.78 | CN(CCc1ccc([N+](=O)[O-])cc1)c1nc(-c2ncncc2F)cc(=O)n1C [US8940738, 10]
5 | 8.17 | Cc1nc(-c2ccc([C@H]3CN(c4nc(-c5ccncn5)c(O)c(=O)n4C)CCO3)cc2)no1 [US8940738, 11]

Second part, the compound before the results:

Row | SMILES | pIC50
6 | C[C@@H]1COCCN1c1nc(-c2ncncc2F)cc(=O)n1C [US8940738, 2] | 7.71
7 | Cn1c(N2CCOC[C@H]2CF)nc(-c2ncncc2F)cc1=O [US8940738, 3] | 7.48
8 | Cc1nc(-c2ccc([C@H]3CN(c4nc(-c5ncncc5F)cc(=O)n4C)CCO3)cc2)no1 [US8940738, 4] | 8.08
9 | Cn1c(N2CCCC(c3ccc(N4CCCC4)cc3)C2)nc(-c2ncncc2F)cc1=O (centres undefined) [US8940738, 5] | 7.48
